In patent US9994587B2, “HIV protease inhibitors” (priority 2014, dated 2018):

Experiments:
[1] = target: T1, wildtype HIV-1 protease (Human immunodeficiency virus type 1 group M subtype B, UniProt P04585); experiment: Assay for inhibition of microbial expressed HIV protease (Pepcleav); type: biochemical; conditions: wild type HIV-1 protease 20 pM, peptide substrate 400 micromolar, pH 5.5; mean of at least two independent experiments
T1 construct: preincubated with the HIV-1 protease (wild type) enzyme in assay buffer; made in house; host or cells: Escherichia coli
In short: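 E. coli-expressed enzyme preincubated with inhibitor 30 min at room temperature in 50 mM sodium acetate pH 5.5, 100 mM NaCl, 0.1% BSA, then 400 micromolar peptide substrate added with 20 picomolar protease (final), 1 h at 30° C. Product quantified by LC-MS/MS peak area after formic acid/indinavir quench.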

[2] = tested on: HIV-1 (NL4-3 strain); experiment: Viral Kinetics GFP Reporter (ViKinG) assay; type: cell-based; conditions: Human immunodeficiency virus 1, NL43; 50% NHS; MT4-GFP cells infected with HIV-1 NL4-3; mean of at least two independent experiments
Excerpt: Viral Kinetics GFP Reporter (ViKinG) Assay
The ViKinG assay is an in vitro kinetic assay that employs the MT4-gag-GFP reporter cell line (Wang et al., “Assessment of the susceptibility of mutant HIV-1 to antiviral agents.” J Virological Methods 165:230-37 (2010)) to quantify the number of new cells infected in each round of replication. The purpose of the ViKinG assay is to identify agents that inhibit HIV progression. Briefly, HIV infection results in tat transactivation of the stably expressed HIV LTR promoter to drive gagGFP expression. Thus, an increase in the number of GFP-MT4 cells results following HIV infection.
MT4-GFP cells (250,000 cells/ml) were bulk-infected with HIV-1 (NL4-3 strain) at low multiplicity of infection (MOI) in RPMI+10% FBS for 24 hours. Cells were then washed once in RPMI+10% FBS and resuspended RPMI+10% or 50% normal human serum (NHS). Test compounds were serial-diluted in DMSO on an ECHO® liquid handling platform (Labcyte Corp., Sunnyvale, Calif.), along with a triple drug control (integrase, protease and NNRTI compounds). The infected MT4-GFP cells were added to a 384-well poly-D-lysine coated black plate with clear bottom in which the diluted test compounds were placed. The cells were seeded at 8,000 cells per well and the final DMSO concentration was 0.4%. The infected cells (Green GFP cells) were quantified at both 24 and 48 hours post incubation using Acumen® eX3 (TTP Labtech Ltd., Hertfordshire, United Kingdom). Viral reproductive ratio (R0) was determined using the number of infected cells at 48 hours divided by the number of infected cells at 24 hours. Percent viral growth inhibition was calculated by [1−(R−Rtripledrug)/(RDMSO−Rtripledrug)]*100. Compound potency IP or IC50 was determined by a 4-parameter dose response curve analysis.

Row | SMILES | IC50 [1] [nM] | IC50 [2] [nM]
1 | N[C@H](C(=O)Nc1cccc(F)c1CC[C@@H]1CNC[C@@H](CSc2nnc(-c3ccncc3)o2)O1)C(c1ccc(F)cc1)c1ccc(F)cc1 [Example 91, 4-fluoro-β-(4-fluorophenyl)-N-(3-fluoro-2-{2-[(2R,6S)-6-{[(5-pyridin-4-yl-1,3,4-oxadiazol-2-yl)sulfanyl]methyl}morpholin-2-yl]ethyl}phenyl)-L-phenylalaninamide] | 0.25 | 20
2 | N[C@H](C(=O)Nc1cncc(F)c1CC[C@@H]1CNC[C@@H](CSc2nnc(-c3ccncc3)o2)O1)C(c1ccc(F)cc1)c1ccc(F)cc1 [Example 103, (S)-2-amino-N-(5-fluoro-4-(2-((2R,6S)-6-(((5-(pyridin-4-yl)-1,3,4-oxadiazol-2-yl)thio)methyl)morpholin-2-yl)ethyl)pyridin-3-yl)-3,3-bis(4-fluorophenyl)propanamide] | 0.49 | 37
3 | N[C@H](C(=O)Nc1cccc(F)c1CC[C@@H]1CNC[C@@H](COC(=O)NCC(F)(F)F)O1)C(c1ccc(F)cc1)c1ccc(F)cc1 [Example 99, 4-fluoro-β-(4-fluorophenyl)-N-(3-fluoro-2-{2-[(2R,6S)-6-({[(2,2,2-trifluoroethyl)carbamoyl]oxy}methyl)morpholin-2-yl]ethyl}phenyl)-L-phenylalaninamide] | 15 | 59
4 | COC(=O)N[C@H](C(=O)Nc1cccc(F)c1CC[C@@H]1CNCC2(CCN(S(C)(=O)=O)CC2)O1)[C@@H](c1ccc(Cl)cc1)c1cc(F)cc(F)c1 [Example 94, methyl {(1 S,2S)-2-(4-chlorophenyl)-2-(3,5-difluorophenyl)-1-[(3-fluoro-2-{2-[(2R)-9-(methylsulfonyl)-1-oxa-4,9-diazaspiro[5.5]undec-2-yl]ethyl}phenyl)carbamoyl]ethyl}carbamate] | 11 | 42
5 | COC(=O)N[C@H](C(=O)Nc1cncc(F)c1CC[C@@H]1CNCC2(CCOCC2)O1)[C@@H](c1ccc(Cl)cc1)c1cc(F)cc(F)c1 [Example 98, methyl {(1S,2S)-2-(4-chlorophenyl)-2-(3,5-difluorophenyl)-1-[(4-{2-[(2R)-1,9-dioxa-4-azaspiro[5.5]undec-2-yl]ethyl}-5-fluoropyridin-3-yl)carbamoyl]ethyl}carbamate] | 29 | 88
